Test results from ChEMBL document CHEMBL5442219.

How the values were obtained:
Conditions in all cases: Compound concentration 10 µM
[1] = target: T1, Alpha-1B adrenergic receptor (Homo sapiens) (UniProt P35368)
T1 sequence (whole entry): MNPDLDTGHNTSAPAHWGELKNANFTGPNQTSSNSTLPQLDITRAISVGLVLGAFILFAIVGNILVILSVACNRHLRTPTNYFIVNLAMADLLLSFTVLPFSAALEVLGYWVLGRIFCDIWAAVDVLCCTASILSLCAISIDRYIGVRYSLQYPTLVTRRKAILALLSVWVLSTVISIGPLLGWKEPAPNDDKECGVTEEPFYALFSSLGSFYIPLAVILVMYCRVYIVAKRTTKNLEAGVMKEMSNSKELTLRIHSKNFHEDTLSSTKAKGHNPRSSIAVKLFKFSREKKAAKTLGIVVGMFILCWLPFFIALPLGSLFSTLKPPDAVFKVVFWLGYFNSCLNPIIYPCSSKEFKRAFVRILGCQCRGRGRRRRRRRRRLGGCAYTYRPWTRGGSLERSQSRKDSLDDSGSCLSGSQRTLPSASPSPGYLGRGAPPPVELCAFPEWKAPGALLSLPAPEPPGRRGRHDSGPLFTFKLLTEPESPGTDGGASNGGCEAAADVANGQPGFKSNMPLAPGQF
Description: PDSP Primary Binding target: ADRA1B - Compounds are tested at 10 uM concentration, plate are incubated at room temperature in the dark for 90 minutes. Reaction are stopped by vacuum filtration onto 0.3% polyethyleneimine soaked filter mats using Filtermate harvester. Scintilation cocktail is then melted onto microwave-dried filters on a hot plate and the radio activity is counted in Microbia counter.

[2] = target: T2, Alpha-1D adrenergic receptor (Homo sapiens) (UniProt P25100)
T2 sequence (whole entry): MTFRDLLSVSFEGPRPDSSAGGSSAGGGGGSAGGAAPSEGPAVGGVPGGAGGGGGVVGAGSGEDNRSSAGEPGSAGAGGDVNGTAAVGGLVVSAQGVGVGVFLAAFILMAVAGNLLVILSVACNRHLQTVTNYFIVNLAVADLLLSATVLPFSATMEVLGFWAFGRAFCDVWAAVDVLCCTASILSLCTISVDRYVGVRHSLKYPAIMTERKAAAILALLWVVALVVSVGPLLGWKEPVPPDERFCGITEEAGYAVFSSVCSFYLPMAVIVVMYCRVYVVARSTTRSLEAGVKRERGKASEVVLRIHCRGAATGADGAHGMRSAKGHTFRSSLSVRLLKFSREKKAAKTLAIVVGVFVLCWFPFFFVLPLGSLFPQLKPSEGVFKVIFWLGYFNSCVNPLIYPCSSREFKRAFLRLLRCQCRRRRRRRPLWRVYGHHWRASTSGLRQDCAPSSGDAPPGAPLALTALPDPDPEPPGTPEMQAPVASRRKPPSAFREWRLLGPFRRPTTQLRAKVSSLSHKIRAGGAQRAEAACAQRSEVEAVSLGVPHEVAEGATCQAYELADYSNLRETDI
Description: PDSP Primary Binding target: ADRA1D - Compounds are tested at 10 uM concentration, plate are incubated at room temperature in the dark for 90 minutes. Reaction are stopped by vacuum filtration onto 0.3% polyethyleneimine soaked filter mats using Filtermate harvester. Scintilation cocktail is then melted onto microwave-dried filters on a hot plate and the radio activity is counted in Microbia counter.

[3] = target: T3, Alpha-2C adrenergic receptor (Homo sapiens) (UniProt P18825)
T3 sequence (whole entry): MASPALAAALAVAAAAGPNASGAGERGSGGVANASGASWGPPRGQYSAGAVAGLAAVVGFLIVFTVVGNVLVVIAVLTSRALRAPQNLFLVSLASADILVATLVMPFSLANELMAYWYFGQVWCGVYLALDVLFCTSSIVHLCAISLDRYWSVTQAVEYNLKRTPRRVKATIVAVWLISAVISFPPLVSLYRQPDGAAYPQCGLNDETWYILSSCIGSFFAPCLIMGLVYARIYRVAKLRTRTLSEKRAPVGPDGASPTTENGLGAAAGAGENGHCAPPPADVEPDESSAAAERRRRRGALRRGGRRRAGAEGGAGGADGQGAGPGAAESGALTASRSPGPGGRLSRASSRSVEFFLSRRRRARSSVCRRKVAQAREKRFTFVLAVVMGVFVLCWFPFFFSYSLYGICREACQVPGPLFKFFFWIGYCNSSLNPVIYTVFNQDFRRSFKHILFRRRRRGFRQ
Description: PDSP Primary Binding target: ADRA2C - Compounds are tested at 10 uM concentration, plate are incubated at room temperature in the dark for 90 minutes. Reaction are stopped by vacuum filtration onto 0.3% polyethyleneimine soaked filter mats using Filtermate harvester. Scintilation cocktail is then melted onto microwave-dried filters on a hot plate and the radio activity is counted in Microbia counter.

[4] = target: T4, 5-hydroxytryptamine receptor 1A (Homo sapiens) (UniProt P08908)
T4 sequence (whole entry): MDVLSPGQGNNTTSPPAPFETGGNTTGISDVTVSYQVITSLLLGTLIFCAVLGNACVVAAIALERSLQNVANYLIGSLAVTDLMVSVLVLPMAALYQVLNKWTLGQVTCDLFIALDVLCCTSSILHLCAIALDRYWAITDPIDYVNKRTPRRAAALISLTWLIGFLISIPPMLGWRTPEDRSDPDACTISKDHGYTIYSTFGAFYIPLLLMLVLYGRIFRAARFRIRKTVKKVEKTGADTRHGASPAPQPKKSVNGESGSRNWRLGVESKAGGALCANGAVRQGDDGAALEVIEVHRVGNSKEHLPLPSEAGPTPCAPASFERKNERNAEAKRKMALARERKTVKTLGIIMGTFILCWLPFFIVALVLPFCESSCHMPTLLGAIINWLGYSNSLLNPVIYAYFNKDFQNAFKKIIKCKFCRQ
Description: PDSP Primary Binding target: HTR1A - Compounds are tested at 10 uM concentration, plate are incubated at room temperature in the dark for 90 minutes. Reaction are stopped by vacuum filtration onto 0.3% polyethyleneimine soaked filter mats using Filtermate harvester. Scintilation cocktail is then melted onto microwave-dried filters on a hot plate and the radio activity is counted in Microbia counter.

[5] = target: 5-hydroxytryptamine receptor 2B (Homo sapiens) (UniProt P41595)
Description: PDSP Primary Binding target: HTR2B - Compounds are tested at 10 uM concentration, plate are incubated at room temperature in the dark for 90 minutes. Reaction are stopped by vacuum filtration onto 0.3% polyethyleneimine soaked filter mats using Filtermate harvester. Scintilation cocktail is then melted onto microwave-dried filters on a hot plate and the radio activity is counted in Microbia counter.

[6] = target: T5, 5-hydroxytryptamine receptor 2C (Homo sapiens) (UniProt P28335)
T5 sequence (whole entry): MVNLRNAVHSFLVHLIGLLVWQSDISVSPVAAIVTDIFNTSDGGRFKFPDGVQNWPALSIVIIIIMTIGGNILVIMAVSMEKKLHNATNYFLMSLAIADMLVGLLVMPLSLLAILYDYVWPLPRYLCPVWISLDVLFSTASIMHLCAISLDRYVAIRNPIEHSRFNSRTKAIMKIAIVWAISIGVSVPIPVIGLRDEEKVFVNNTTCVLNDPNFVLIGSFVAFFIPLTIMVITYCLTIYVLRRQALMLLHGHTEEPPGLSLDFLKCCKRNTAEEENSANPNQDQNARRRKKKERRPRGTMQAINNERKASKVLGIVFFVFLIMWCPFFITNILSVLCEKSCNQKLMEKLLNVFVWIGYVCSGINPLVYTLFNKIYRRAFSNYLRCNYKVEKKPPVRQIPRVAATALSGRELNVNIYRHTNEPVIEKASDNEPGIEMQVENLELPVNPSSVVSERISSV
Description: PDSP Primary Binding target: HTR2C - Compounds are tested at 10 uM concentration, plate are incubated at room temperature in the dark for 90 minutes. Reaction are stopped by vacuum filtration onto 0.3% polyethyleneimine soaked filter mats using Filtermate harvester. Scintilation cocktail is then melted onto microwave-dried filters on a hot plate and the radio activity is counted in Microbia counter.

[7] = target: Kappa-type opioid receptor (Homo sapiens) (UniProt P41145)
Description: PDSP Primary Binding target: OPRK1 - Compounds are tested at 10 uM concentration, plate are incubated at room temperature in the dark for 90 minutes. Reaction are stopped by vacuum filtration onto 0.3% polyethyleneimine soaked filter mats using Filtermate harvester. Scintilation cocktail is then melted onto microwave-dried filters on a hot plate and the radio activity is counted in Microbia counter.

[8] = target: Sodium-dependent dopamine transporter (Homo sapiens) (UniProt Q01959)
Description: PDSP Primary Binding target: SLC6A3 - Compounds are tested at 10 uM concentration, plate are incubated at room temperature in the dark for 90 minutes. Reaction are stopped by vacuum filtration onto 0.3% polyethyleneimine soaked filter mats using Filtermate harvester. Scintilation cocktail is then melted onto microwave-dried filters on a hot plate and the radio activity is counted in Microbia counter.

[9] = target: Sodium-dependent serotonin transporter (Homo sapiens) (UniProt P31645)
Description: PDSP Primary Binding target: SLC6A4 - Compounds are tested at 10 uM concentration, plate are incubated at room temperature in the dark for 90 minutes. Reaction are stopped by vacuum filtration onto 0.3% polyethyleneimine soaked filter mats using Filtermate harvester. Scintilation cocktail is then melted onto microwave-dried filters on a hot plate and the radio activity is counted in Microbia counter.

[10] = target: Translocator protein (Homo sapiens) (UniProt P30536)
Translocator protein (Homo sapiens), sequence (P30536 whole entry): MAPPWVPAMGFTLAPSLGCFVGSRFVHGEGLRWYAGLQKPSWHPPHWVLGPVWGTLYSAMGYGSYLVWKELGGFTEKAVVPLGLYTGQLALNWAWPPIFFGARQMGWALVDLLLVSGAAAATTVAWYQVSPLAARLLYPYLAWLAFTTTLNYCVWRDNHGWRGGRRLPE
Description: PDSP Primary Binding target: TSPO - Compounds are tested at 10 uM concentration, plate are incubated at room temperature in the dark for 90 minutes. Reaction are stopped by vacuum filtration onto 0.3% polyethyleneimine soaked filter mats using Filtermate harvester. Scintilation cocktail is then melted onto microwave-dried filters on a hot plate and the radio activity is counted in Microbia counter.

Sodium-dependent dopamine transporter (Homo sapiens), sequence (Q01959 whole entry): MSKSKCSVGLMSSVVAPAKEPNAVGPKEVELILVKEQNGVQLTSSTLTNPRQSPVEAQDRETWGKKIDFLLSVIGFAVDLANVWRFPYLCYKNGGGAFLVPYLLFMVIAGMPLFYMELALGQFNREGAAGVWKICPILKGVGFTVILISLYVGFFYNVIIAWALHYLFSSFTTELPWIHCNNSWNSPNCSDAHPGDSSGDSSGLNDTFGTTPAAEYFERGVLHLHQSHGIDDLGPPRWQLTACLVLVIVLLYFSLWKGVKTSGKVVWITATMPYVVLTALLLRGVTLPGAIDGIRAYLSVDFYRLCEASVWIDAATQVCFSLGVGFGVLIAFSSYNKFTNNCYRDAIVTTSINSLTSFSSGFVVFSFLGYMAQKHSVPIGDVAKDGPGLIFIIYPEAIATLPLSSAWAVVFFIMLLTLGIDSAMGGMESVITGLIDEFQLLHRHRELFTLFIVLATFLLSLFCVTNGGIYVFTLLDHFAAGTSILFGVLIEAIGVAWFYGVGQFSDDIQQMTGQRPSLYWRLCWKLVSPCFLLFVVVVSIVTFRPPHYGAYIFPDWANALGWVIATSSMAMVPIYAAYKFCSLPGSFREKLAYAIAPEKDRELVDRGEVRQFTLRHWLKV
Kappa-type opioid receptor (Homo sapiens), sequence (P41145 whole entry): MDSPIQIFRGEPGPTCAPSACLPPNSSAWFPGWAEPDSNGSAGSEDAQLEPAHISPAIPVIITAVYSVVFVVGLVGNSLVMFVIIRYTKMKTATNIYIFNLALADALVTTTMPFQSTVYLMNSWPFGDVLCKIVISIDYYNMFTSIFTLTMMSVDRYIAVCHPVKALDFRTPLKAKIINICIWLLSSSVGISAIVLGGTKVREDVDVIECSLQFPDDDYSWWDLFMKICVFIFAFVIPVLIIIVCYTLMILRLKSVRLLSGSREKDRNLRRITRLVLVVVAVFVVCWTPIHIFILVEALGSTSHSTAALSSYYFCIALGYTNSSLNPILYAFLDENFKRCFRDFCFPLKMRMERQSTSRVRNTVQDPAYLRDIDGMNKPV
Sodium-dependent serotonin transporter (Homo sapiens), sequence (P31645 whole entry, looked up): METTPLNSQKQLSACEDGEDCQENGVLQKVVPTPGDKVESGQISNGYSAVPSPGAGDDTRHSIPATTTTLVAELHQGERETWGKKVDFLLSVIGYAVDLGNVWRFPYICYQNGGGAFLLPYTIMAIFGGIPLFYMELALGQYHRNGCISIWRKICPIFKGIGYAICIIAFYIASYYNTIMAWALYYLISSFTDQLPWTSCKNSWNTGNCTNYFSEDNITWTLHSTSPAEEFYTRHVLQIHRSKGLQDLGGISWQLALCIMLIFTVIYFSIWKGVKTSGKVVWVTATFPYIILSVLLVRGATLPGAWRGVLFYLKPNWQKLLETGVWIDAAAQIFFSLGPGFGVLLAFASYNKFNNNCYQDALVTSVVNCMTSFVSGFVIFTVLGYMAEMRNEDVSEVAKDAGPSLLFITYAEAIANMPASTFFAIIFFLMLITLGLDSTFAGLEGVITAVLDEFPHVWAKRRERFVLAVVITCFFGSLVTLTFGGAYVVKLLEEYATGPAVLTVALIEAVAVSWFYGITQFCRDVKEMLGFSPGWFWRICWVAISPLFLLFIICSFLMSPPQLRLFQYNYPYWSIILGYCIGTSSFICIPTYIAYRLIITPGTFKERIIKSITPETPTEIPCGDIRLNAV
5-hydroxytryptamine receptor 2B (Homo sapiens), sequence (P41595 whole entry): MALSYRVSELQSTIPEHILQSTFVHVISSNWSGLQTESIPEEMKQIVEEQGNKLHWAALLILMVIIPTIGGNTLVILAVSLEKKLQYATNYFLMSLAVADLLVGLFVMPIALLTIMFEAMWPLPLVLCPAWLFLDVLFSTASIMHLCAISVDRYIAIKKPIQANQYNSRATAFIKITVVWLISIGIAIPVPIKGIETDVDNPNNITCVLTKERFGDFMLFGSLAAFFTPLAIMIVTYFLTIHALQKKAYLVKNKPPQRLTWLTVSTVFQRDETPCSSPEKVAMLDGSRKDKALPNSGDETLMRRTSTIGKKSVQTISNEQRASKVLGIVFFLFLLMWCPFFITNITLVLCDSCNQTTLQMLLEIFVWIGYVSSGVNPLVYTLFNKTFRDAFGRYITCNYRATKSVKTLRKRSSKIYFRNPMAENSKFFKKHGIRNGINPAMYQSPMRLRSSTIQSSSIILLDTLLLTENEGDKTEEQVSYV

Structure (SMILES) | inhibition [1] | inhibition [2] | inhibition [3] | inhibition [4] | inhibition [5] | inhibition [6] | inhibition [7] | inhibition [8] | inhibition [9] | inhibition [10]
O=c1ccc2ccc(OCCCCN3CCN(c4cccc5sccc45)CC3)cc2[nH]1 | 97.3% | 92.5% | 104% | 103% | 96% | 103% | 13.9% | 88.2% | 98.2% | -2.98%
N#Cc1ccc(NC(=O)Nc2ccccc2Br)c2nn[nH]c12 | 13.2% | -7.75% | 4.08% | 6.16% | 33.9% | 26.9% | 25.6% | 59.8% | 26.5% | 53.9%
CS(=O)(=O)NC[C@H]1CC[C@H](Nc2nc3c(s2)CCSc2ccccc2-3)CC1 | -8.21% | 2.44% | 37.1% | 35.6% | 83% | 0.89% | -0.03% | 3.98% | 13.6% | 35.9%
